Results: paper PMC2813692 (Molecular cancer therapeutics, 2008)
Values belong to the compound of their own block, whether it stands above or below them.

Key:
[1] = Plasma pharmacokinetics by LC-MS/MS
[2] = tested on: subjects of the Adenoma Prevention with Celecoxib Trial; details: ref [32], cited from earlier work
[3] = tested on: metastatic colorectal cancer; details: second-line single-agent; ref [33]; cited from earlier work
[4] = capecitabine 1,000 mg/m^2 alone (run-in, Pre), mean ± SD in 8 patients
[5] = capecitabine 1,000 mg/m^2 in combination with 250 mg gefitinib, C1D1, mean ± SD in 8 patients

effect of gefitinib on the AUC, Cmax, t1/2, and clearance of capecitabine ([1]; alone (run-in day) vs in combination with gefitinib (cycle 1 day 1)): no significant effects
CL/F [1, 4]: 272 ± 120 L/h
t1/2λ [1, 4]: 0.93 ± 0.92 h
CL/F [1, 5]: 300 ± 204 L/h
t1/2λ [1, 5]: 1.09 ± 0.80 h
Vd/F ([1]; human, plasma, oral, 1000 mg/m^2): 363 ± 364 L
AUC(0-inf) ([1]; human, plasma, oral, AUC0→∞, capecitabine 1,000 mg/m^2 in combination with 250 mg gefitinib, C1D1, mean ± SD in 8 patients): 13.2 ± 8.1 µM·h
SMILES: CCCCCOC(=O)Nc1nc(=O)n([C@@H]2O[C@H](C)[C@@H](O)[C@H]2O)cc1F [capecitabine]

SMILES: Cc1ccc(-c2cc(C(F)(F)F)nn2-c2ccc(S(N)(=O)=O)cc2)cc1 [celecoxib]
subjects who experienced cardiovascular events ([2]; 35 of 1,356 subjects who received celecoxib): 2.6%
increase in risk of major fatal and nonfatal cardiovascular events ([2]; compared with placebo): 2.5 fold
steady-state plasma trough levels of celecoxib ([1]; across any of the doses tested (data not shown)): Neither capecitabine nor gefitinib affected

effect of capecitabine on the trough levels of gefitinib ([1]; across dose levels): did not affect
SMILES: COc1cc2ncnc(Nc3ccc(F)c(Cl)c3)c2cc1OCCCN1CCOCC1 [gefitinib]

SMILES: O=C1[O][Pt]2([NH][C@@H]3CCCC[C@H]3[NH]2)[O]C1=O [oxaliplatin]
response rate [3]: 10%
